Reference: a melting point compilation (Tetko et al.; mined from patent text by program, amines drawn as free bases though some values may be those of a salt)

| Compound | melting point |
| --- | --- |
| COc1ccc(C(=O)CCc2cccnc2)cc1 | 76 to 78 °C |
| CCOC(=O)c1nc(C)n2c1CN=C(c1ccccn1)c1cc(Br)ccc1-2 | 240 to 243 °C |
| CC(C)C1NC(=O)OC1C(F)(F)F (stereo not drawn) | 71 to 72 °C |
| COc1cccc2c1C13CCN(C(=O)C4CC4)C(C2)C1(O)CCC(=O)C3 (stereo not drawn) | 223 to 225 °C |
| CCOC(=O)C(NO)NC(C)=O (stereo not drawn) | 119 to 121 °C |
| COc1ccc(C(=O)c2nccs2)cc1OCc1ccc2ccccc2c1 | 80 °C |
| Fc1cccc(COc2nnc(-c3ccc4c(c3)CCO4)o2)c1 | 91 to 92 °C |
| CC(C)c1ccc(C(=O)C2=C(O)C(=O)N(c3ccc(O)nn3)C2c2ccc(OC(F)(F)F)cc2)cc1 (stereo not drawn) | 255 °C |
| CC(=O)Oc1ccc2c(c1Cl)Sc1ccccc1N2C(C)=O | 155 °C |
| O=C(O)c1ccc(-c2ccc3nnn(Cc4c(F)ccc(F)c4Cl)c3n2)cc1F | 211 to 213 °C |
| CCOC(=O)NN=C(C)c1ccccn1 | 113 °C |
| CN(C)CCc1c[nH]c2ccc(C(N)=S)cc12 | 155 °C |
| CSC(=O)c1cccc2c1[nH]c1ccccc12 | 122 to 123 °C |
| COC(=O)[C@H](O)[C@@H](N)c1ccc(C(N)=O)cc1 | 206 °C |
| O=c1c(-c2ccc(Cl)cc2)nc2ccccc2n1CC(F)F | 133 to 136 °C |
| CSCC(=O)C(Cc1ccc2ccccc2c1)NC(=O)C(CC(C)C)NC(=O)OCc1ccccc1 (stereo not drawn) | 101 to 103 °C |
| CC(=O)N(N(CCCl)S(C)(=O)=O)S(C)(=O)=O | 148 to 149 °C |
| Cc1ccccc1C=CCC(C(=O)C=Cc1ccc(Cl)cc1)c1ccccc1 (stereo not drawn) | 60 to 76 °C |
| CN1C(C(=O)Nc2ccccn2)=C(OC(=O)C=Cc2ccccc2)c2ccccc2S1(=O)=O | 156 to 158 °C |
| CN(C)OCc1nnc2n1-c1ccc(Cl)cc1C(c1ccccc1)=NC2 | 174 °C |
| Fc1cc(CC2(Cc3ccnc(F)c3)c3ccccc3-c3nc(-c4ccccc4)ncc32)ccn1 | 213 to 215 °C |
| CO[C@@H](C(=O)N[C@H]1CC[C@@H](OC(=O)C=Cc2ccccc2)CNC1=O)[C@H](O)[C@@H](O)[C@H](O)/C=C/C(C)(C)C | 83 to 85 °C |

| Compound | melting point |
| --- | --- |
| O=C(Nc1ccccc1)N1C[C@@H](P(c2ccccc2)c2ccccc2)[C@H](P(c2ccccc2)c2ccccc2)C1 | 165 to 167 °C |
| CC(C=Cc1c(C)cc(C)c(C)c1C)=CC=CC(C)=CC(=O)O | 201 to 202 °C |
| O=c1occ(CSc2ccc(F)cc2)o1 | 57 to 59 °C |
| COC(=O)C1(C(N)=O)OC1c1ccccc1 (stereo not drawn) | 175 to 177 °C |
| COc1nc(C)nc(NC(=O)NS(=O)(=O)c2csc3ccccc23)n1 | 187 to 188 °C |
| O=C1c2c(-c3ccccc3)noc2CCC1CCCN1CCC(O)(c2ccc(Cl)cc2)CC1 (stereo not drawn) | 147 to 148 °C |
| COc1c(C)cnc(C(Br)C#N)c1C (stereo not drawn) | 56 to 57 °C |
| O=c1c(Cl)c(Cl)cnn1[C@@H]1C[C@H](O)[C@@H](O)[C@H]1O (racemic) | 163 °C |
| CC(C)(C)NC(=O)[C@@H]1C[C@H](Cl)CN1C(=O)[C@@H](O)[C@H](Cc1ccccc1)NC(=O)[C@H](CC(N)=O)NC(=O)OC(C)(C)C | 126 to 132 °C |
| CC(C)Oc1ccc2ccc(C(N)=O)c(OC(C)C)c2c1 | 145 to 146 °C |
| N#Cc1c(N)[nH]c2c1COc1ccccc1-2 | 216 to 217 °C |
| COC(=O)Cc1ccc(Oc2ccc(C#N)cc2)cc1 | 58 to 60 °C |
| C[C@@H](S[C@H]1CO[C@H](/C=C/c2ccc(C(F)(F)F)cc2)OC1)[C@](O)(Cn1cncn1)c1ccc(F)cc1F | 73 to 75 °C |
| O=C(CCl)Nc1c([N+](=O)[O-])cnn1-c1c(Cl)cc(C(F)(F)F)cc1Cl | 130 to 133 °C |
| O=C(OCC(Cl)(Cl)Cl)c1ccc2c(c1)C(C(Cl)(Cl)Cl)OC(C(Cl)(Cl)Cl)O2 (stereo not drawn) | 129 to 130 °C |
| CCCCCCCCCCCCCCCCN[C@H](C(=O)N[C@H](C(=O)O)C(C)C)C(C)C | 120 to 123 °C |
| CN1CCN(C2=Nc3cc(F)ccc3N3CCc4cccc2c43)CC1 | 151 to 153 °C |
| O=C(O)CCC(=O)c1ccc(F)c([N+](=O)[O-])c1 | 136 °C |
| C#CCOc1ccc(C=O)cc1OC | 95 °C |
| O=C(NCCO)/C(=C/c1ccc(OC(F)(F)F)cc1)NC(=O)c1ccc(Oc2ccc(C(F)(F)F)cc2)cc1 | 84 to 86 °C |
| NS(=O)(=O)c1ccccc1CN1CCCC1 | 110 to 112 °C |
| Nc1c(SC(F)(F)F)cnn1-c1c(Cl)cc(C(F)(F)F)cc1Cl | 113 to 117 °C |

| Compound | melting point |
| --- | --- |
| COCCn1cc(-c2ccccc2)n(C(=O)c2ccccc2)c1=O | 112 to 117 °C |
| O=C(N[C@@H](Cc1ccccc1)C(=O)N[C@H](CO)Cc1c[nH]c2ccccc12)OCc1ccccc1 | 154 to 156 °C |
| O=c1ccc2c(O)cccc2o1 | 224 to 225 °C |
| O=C(O)[C@@H](Cc1ccccc1)NS(=O)(=O)c1ccc2ccccc2c1 | 146 °C |
| O=C(Cl)c1cnc2cc(OCc3ccccc3)c(OCc3ccccc3)cn2c1=O | 152 °C |
| O=[N+]([O-])c1c(Cl)cccc1-c1nc2ccccc2n1CC(O)CO (stereo not drawn) | 188 to 189 °C |
| Cc1ccc(C(Cl)=CC(=O)NC(Cc2ccccc2)C(=O)O)cc1 (stereo not drawn) | 168 to 170 °C |
| CCCc1c(OCCCCCCCC(=O)NCCCCc2cccnc2)ccc(C(C)=O)c1O | 48 to 51 °C |
| O=C(O)CCC(=O)c1ccc2sc3ccccc3c2c1 | 157 to 158 °C |
| O=c1ccccn1C(c1ccccc1)c1ccccc1 | 142 to 145 °C |
| C=CCNC(=O)C=Cc1cccc(F)c1 | 84.5 to 87 °C |
| O=C(O)CCC(=O)c1ccc(Br)s1 | 141 to 143 °C |
| CCOC(=O)CC(=O)C=CNc1cc(C)no1 | 93 to 95 °C |
| O=C(O)c1cnc(Cl)nc1-c1ccccc1 | 105 to 110 °C |
| Nc1nc2c(s1)CCN(CCCCCc1ccccc1)CC2 | 102 to 105 °C |
| CCOC(=O)c1cccc2nc3cc(C(=O)c4ccccc4)ccc3nc12 | 115 to 116 °C |
| C=CC(C)(C)C(=O)C(Oc1ccc(Cl)cc1)n1ccnc1 (stereo not drawn) | 72 to 74 °C |
| CC1(CCC#N)N=C(c2ccc(Cl)cc2)OC1=O (stereo not drawn) | 97 to 98 °C |
| O=c1c(Cc2ccccc2)c(-c2ncco2)n(-c2ccccc2)c2cc(Cl)ccc12 | 219 to 220 °C |
| OC1CSC(Oc2cccc(-c3cccs3)c2)C(O)C1O (stereo not drawn) | 165 to 166 °C |
| COc1ccccc1-c1cc2c(Nc3cccc(Cl)c3)ncnc2[nH]1 | 221 °C |
| O=C1NCC2=C1c1ccc(Cl)cc1C(c1ccccc1Cl)=NC2 | 195 to 197 °C |

Results, then the molecule that gave them:

| melting point | Compound |
| --- | --- |
| 151 to 152 °C | O=c1c(N2CCCNCC2)nc2cc(F)ccc2n1-c1ccccc1 |
| 131 to 132 °C | CC(C)c1nc(COCc2ccccc2)n(C(C)F)c1Sc1cc(Cl)cc(Cl)c1 (stereo not drawn) |
| 117 to 119 °C | CC(C)(C)OC(=O)N[C@@H]1CCC(=O)OC1=O |
| > 280 °C | CC1COc2c(C3CC3)c(F)c(N)c3c(=O)c(C(=O)O)cn1c23 (stereo not drawn) |
| 99 to 101 °C | COC(=O)NC1CCc2ccc(Cl)cc2C1 (stereo not drawn) |
| 193 °C | O=C(O)c1cn(CCCO)c(=O)c2cc(Cl)ccc12 |
| 162 to 163 °C | CN(C)CCNC1=CC(=O)c2nc(-c3cc(F)ccc3F)oc2C1=O |
| 120 to 122 °C | CCOc1cc2c(cc1OC)C(=O)CC(C)(C)O2 |
| 121 °C | Cc1cc(C)cc(N2C(=O)NC(C)(C3CC3)C2=O)c1 (stereo not drawn) |
| 246 to 247 °C | CC(=Cc1c[nH]c2ccc3c(c12)CCCO3)[N+](=O)[O-] |
| 90 to 100 °C | COc1cc(-c2cc(=Nc3c(C)cc(C)cc3C)n(C)c(=O)n2C)ccc1O |
| 155 to 156 °C | Cc1cccc(C)c1N1CC(=N)N(c2c(C)cccc2C)C1C(=O)c1ccc(Cl)cc1 (stereo not drawn) |
| 207 to 208 °C | Nc1ccc(-c2cc(=O)c(C(=O)O)cn2-c2cccnc2)cc1 |
| 142 °C | Cc1cn(C2CC(O[Si](c3ccccc3)(c3ccccc3)C(C)(C)C)C(CI)O2)c(=O)[nH]c1=O (stereo not drawn) |
| 154 to 155 °C | Cc1cccc(NC(=O)NC2N=C(C3CCCCC3)c3cccc(C)c3N(CC(=O)N3CCCCCCC3)C2=O)c1 (stereo not drawn) |
| 204 to 207 °C | CC(C)c1ccc2c(c1)C(=O)N(C)C(c1ccc(C(C)(C)C)cc1)C2C(=O)O (stereo not drawn) |
| 168 to 169 °C | CC(N1C(=O)C(=O)N(c2cccc(C#N)c2)C1=S)C(C)(C)C (stereo not drawn) |
| 180 to 182 °C | CN1C(=O)CC(C(=O)Nc2ccc(F)cc2)C(=O)c2cc(F)ccc21 (stereo not drawn) |
| 210 °C | O=C1CCC(c2ccccc2)(c2ccccc2)[C@@H]2CN(C(=O)Cc3ccc(F)cc3)C[C@H]12 (racemic) |

| melting point | Compound |
| --- | --- |
| 132 to 134 °C | COC(=O)C1Cc2c([nH]c3ccccc23)CN1C(=S)SC (stereo not drawn) |
| 100 to 101 °C | CN1C(=O)Cc2ccc(F)cc21 |
| 202 to 203 °C | CC(C)(C)OC(=O)NNC(=O)Cc1nc2cc(F)c(N3CCN(C(=O)OC(C)(C)C)CC3)cc2n1C1CC1 |
| 94 to 95 °C | O=C1CC(c2ccco2)Cc2occ(C(F)(F)F)c21 (stereo not drawn) |
| 205 to 207 °C | NC(=O)C1CCc2cc(C(=O)c3ccccc3)c(O)cc21 (stereo not drawn) |
| > 80 °C | Cc1c2n3ccc4c3c(c3cnccn3c-2cc(=O)c1=O)CCC4 |
| 116 to 117 °C | Cc1cc(-n2cncn2)ccc1[N+](=O)[O-] |
| 164 °C | CN(C)C(=O)Nc1cc(Cl)ccc1O |
| 213 to 214 °C | Cc1cc(C)cc(Cc2[nH]c(=O)[nH]c(=O)c2C(C)C)c1 |
| 185 to 186 °C | CC(=O)NC[C@H]1CN(c2ccc(N3CCS(=O)CC3)cc2)C(=O)O1 |
| 161 to 162 °C | CNC(=O)C1CC(C)(C)Oc2ccc([N+](=O)[O-])cc21 (stereo not drawn) |
| 98.5 to 100 °C | CCC1(CC)OC(=O)c2cc([N+](=O)[O-])ccc21 |
| 225 to 227 °C | COc1ccc(C=C2COCC(=Cc3ccc(OC)c(C)c3C)C2=O)c(C)c1C |
| 50 to 52 °C | CCCOc1ccc2c(c1)C(=O)CCO2 |
| 118 to 121 °C | COC(=O)c1cc(C(=O)OC)cc(N(C)C)c1 |
| 107 to 109 °C | O=C(c1ccc(F)c(F)c1)N1CCC[C@H](c2nc(-c3cscn3)no2)C1 |
| 17 to 20 °C | C=CCCCCN1C(=O)c2ccccc2C1=O |
| 224 to 225 °C | O=C1NC(=O)c2ccccc2/C1=C/Nc1ccc(CCN2CCCC2)cc1 |
